In patent publication US20090053793A1, “Ethanol resistant and furfural resistant strains of E. coli FBR5 for production of ethanol from cellulosic biomass” (Rowan University, priority 2006, published 2009):

Assay: Pilot batch fermentation in LB broth with xylose
Set-up: species or system E. coli
Conditions: pilot fermentations
Protocol: Pilot fermentation studies were conducted in a 3L fermentation vessel in conjunction with a BioFlo 3000 system (which is marketed by New Brunswick Scientific Co. of Edison, N.J.) to monitor temperature, dissolved oxygen, air flow rate, agitation rate and pH. The media used for fermentation consisted of LB broth, xylose at various concentrations, and ampicillin. For some runs, glucose was also added to the media (see the mixed sugar fermentation discussed in connection with FIG. 12 below). To ensure sterility, the fermentor, with the media inside, along with the condenser, and a flask of distilled water were autoclaved the day before each fermentation run. An overnight culture of the strain to be used in the fermentation was then grown the night before each run. The fermentor was connected to the BioFlo 3000 system when ready to begin the run. […] The nitrogen and water flows were then opened, whereby the fermentor was ready for the addition of the overnight culture. The following was then added to the fermentor: (1) 300 mL of sterile, filtered LB broth, (2) an amount of xylose determined as a function of the desired initial sugar concentration, (3) an amount of ampicillin such that the initial concentration in the fermentor was always 100 mg/L, and (4) the overnight culture, whereby fermentation began. […]

O=C[C@H](O)[C@@H](O)[C@H](O)CO [xylose]
xylose concentration found to inhibit cell growth and ethanol production: > 175 g/L
